Values joined by “and” are separate entries in the source; they are usually repeats but may differ in a detail not shown here. Equal entries are not always repeated. Where only a bound is given, the exact number is not on record here.

Data set [1] deals with SiHa. Nature of the data set: Cytotoxicity MTT assay, SiHa cervix squamous carcinoma. The format is cell-based, human. To be noted: Homo sapiens; SiHa, MTT, 72 h; read-out: Cytotoxic activity CC50. The protocol:
(§1) Three types of cancer cell lines obtained from the American Type Culture Collection (ATCC) were cultured: two oral-laryngeal cancer cell lines, nasopharynx carcinoma (KB, ATCC-CCL-17) and laryngeal carcinoma (Hep-2, ATCC-CCL-23); two cervix-uterine cancer cell lines, cervix adenocarcinoma (HeLa, ATCC-CCL-2) and cervix squamous carcinoma (SiHa, ATCC-HTB-35); and two prostate cancer cell lines, prostate carcinoma (DU-145, ATCC-HTB-81) and prostate adenocarcinoma (PC-3, ATCC-CRL-1435); along with one normal cell line (MDCK, ATCC-CCL-34). The cells were cultured in sterile Costar T75 flasks containing DMEM (Gibco, Hong Kong, China), supplemented with fetal bovine serum (10%, v/v), 100 U/mL penicillin G, and […] streptomycin at 37 °C in an atmosphere of 5% CO2 (95% humidity). At 70%–80% confluence, cells were detached from the cultured flask by treatment with 0.05% trypsin-EDTA (Gibco), and a suspension of 5 × 10^4 cells/mL of viable cells was seeded in a 96-well microtiter plate (Costar, Washington, DC, USA) and incubated. Cytotoxicity was assessed by the MTT assay as previously described by Rahman. When cells reached 90% confluence in a microtiter plate, the DMEM was replaced with fresh medium and cells were incubated with compounds at various concentrations. […] The medium was aspirated, and the formazan product was solubilized with acidified isopropanol (0.4 N HCl). The amount of MTT-formazan is directly proportional to the number of living cells and was determined by measuring the optical density (OD) at 590 nm using a bioassay reader (Bio-Rad). All determinations were performed in triplicate. The cytotoxic and antiproliferative activities of tested compounds were calculated as the percentage of cells killed or the percentage of inhibition of cell proliferation, respectively, using the equation: growth inhibition (%) = (ODcontrol − ODsample/ODcontrol) × 100. […] In addition, the level of cytotoxicity on normal cells was evaluated by determining the selectivity index (SI) of each compound, which is calculated as the ratio of cytotoxicity or reduced cell growth on normal cells to cancer cells (SI = normal cells/cancer cells).

A short description of data set [2]: Cytotoxicity MTT assay, PC-3 prostate adenocarcinoma. The format is cell-based, human. The note with it: human, MDCK normal cells versus PC-3 prostate adenocarcinoma cells; CC50 MDCK normal cells / PC-3; read-out: Selectivity index (SI) of cytotoxic activity. The protocol: as §1
The test system of data set [3] is PC-3. The description is as above. In kind it is cell-based, human. The note with it: Homo sapiens; PC-3, MTT, 72 h; read-out: Cytotoxic activity CC50. On the procedure:
as §1

For data set [4], the system named is HeLa. Nature of the data set: Antiproliferative sulforhodamine B assay, HeLa. The format is cell-based, human. To be noted: for IC50: Homo sapiens, HeLa, SRB, 48 h. On the procedure:
(§2) Three types of cancer cell lines obtained from the American Type Culture Collection (ATCC) were cultured: two oral-laryngeal cancer cell lines, nasopharynx carcinoma (KB, ATCC-CCL-17) and laryngeal carcinoma (Hep-2, ATCC-CCL-23); two cervix-uterine cancer cell lines, cervix adenocarcinoma (HeLa, ATCC-CCL-2) and cervix squamous carcinoma (SiHa, ATCC-HTB-35); and two prostate cancer cell lines, prostate carcinoma (DU-145, ATCC-HTB-81) and prostate adenocarcinoma (PC-3, ATCC-CRL-1435); along with one normal cell line (MDCK, ATCC-CCL-34). The cells were cultured in sterile Costar T75 flasks containing DMEM (Gibco, Hong Kong, China), supplemented with fetal bovine serum (10%, v/v), 100 U/mL penicillin G, and […] streptomycin at 37 °C in an atmosphere of 5% CO2 (95% humidity). At 70%–80% confluence, cells were detached from the cultured flask by treatment with 0.05% trypsin-EDTA (Gibco), and a suspension of 5 × 10^4 cells/mL of viable cells was seeded in a 96-well microtiter plate (Costar, Washington, DC, USA) and incubated.
(§3) The growth inhibition of cancer cells was evaluated by the sulforhodamine B method. When cells reached 70% confluence in a microtiter plate, the medium was replaced with DMEM 5% FBS and samples at various concentrations. After 48 h, the medium was discarded, and cells were fixed by adding 50 μL of 10% trichloroacetic acid (TCA, Sigma-Aldrich Chemical, St. Louis, MO, USA). The cells were then incubated at 4 °C for 30 min; TCA was drained off, and the plates were left to dry. Then, 50 μL of SRB stain (10 mg of 1% acetic acid, Sigma) were added to each well for 30 min. Finally, the plates were washed four times with 1% acetic acid (100 μL). The OD was measured at 540 nm using an ELISA reader (Bio-Rad). Docetaxel was used as a positive control, whereas cells incubated only with 0.05% of DMSO were used as a negative control. All determinations were performed in triplicate.
(§4) The cytotoxic and antiproliferative activities of tested compounds were calculated as the percentage of cells killed or the percentage of inhibition of cell proliferation, respectively, using the equation: growth inhibition (%) = (ODcontrol − ODsample/ODcontrol) × 100. […] In addition, the level of cytotoxicity on normal cells was evaluated by determining the selectivity index (SI) of each compound, which is calculated as the ratio of cytotoxicity or reduced cell growth on normal cells to cancer cells (SI = normal cells/cancer cells). It is generally considered that biological efficacy is not due to general toxicity when SI ≥ 10 [17].

The subject of data set [5] is Hep-2. Nature of the data set: Antiproliferative sulforhodamine B assay, Hep-2. The note with it: for IC50: Homo sapiens, Hep-2, SRB, 48 h. In kind it is cell-based, human. On the procedure: as §2, §3, §4
In data set [6] the test system is DU-145. Briefly: Cytotoxicity MTT assay, DU-145 prostate carcinoma. The format is cell-based, human. The note with it: Homo sapiens; DU-145, MTT, 72 h; read-out: Cytotoxic activity CC50. On the procedure:
as §1

A short description of data set [7]: Cytotoxicity MTT assay, DU-145 prostate carcinoma. In kind it is cell-based, human. To be noted: human, MDCK normal cells versus DU-145 prostate carcinoma cells; CC50 MDCK normal cells / DU-145; read-out: Selectivity index (SI) of cytotoxic activity. The protocol:
as §1

The subject of data set [8] is HeLa. Briefly: Cytotoxicity MTT assay, HeLa cervix adenocarcinoma. The note with it: Homo sapiens; HeLa, MTT, 72 h; read-out: Cytotoxic activity CC50. The format is cell-based, human. The protocol: as §1
For data set [9], the system named is SiHa. Nature of the data set: Antiproliferative sulforhodamine B assay, SiHa. The format is cell-based, human. The note with it: for IC50: Homo sapiens, SiHa, SRB, 48 h; for Selectivity index (SI) of antiproliferative activity: IC50 MDCK normal cells / SiHa. The protocol:
as §2, §3, §4

Data set [10] deals with PC-3. Briefly: Antiproliferative sulforhodamine B assay, PC-3. The format is cell-based. To be noted: Homo sapiens; PC-3, SRB, 48 h. On the procedure: as §2, §3, §4
Another data set concerns MDCK. Briefly: Antiproliferative sulforhodamine B assay, MDCK normal cell line. To be noted: Canis lupus familiaris, SRB, 48 h. The format is cell-based. On the procedure:
as §2, §3, §4

Data set [11] deals with KB. Briefly: Antiproliferative sulforhodamine B assay, KB. In kind it is cell-based, human. To be noted: for IC50: Homo sapiens, KB, SRB, 48 h; for Selectivity index (SI) of antiproliferative activity: IC50 MDCK normal cells / KB. The protocol: as §2, §3, §4
Data set [12] is described as follows: Cytotoxicity MTT assay, MDCK normal cell line. The note with it: dog, MDCK cells (normal cell line), read-out: Cytotoxic activity CC50. In kind it is cell-based. On the procedure: as §1
The test system of data set [13] is DU-145. Nature of the data set: Antiproliferative sulforhodamine B assay, DU-145. The format is cell-based, human. To be noted: for IC50: Homo sapiens, DU-145, SRB, 48 h. On the procedure:
as §2, §3, §4

Data set [14] has as its system KB. Briefly: Cytotoxicity MTT assay, KB nasopharynx carcinoma. In kind it is cell-based, human. The note with it: Homo sapiens; KB, MTT, 72 h; read-out: Cytotoxic activity CC50. On the procedure:
as §1

The subject of data set [15] is Hep-2. Briefly: Cytotoxicity MTT assay, Hep-2 laryngeal carcinoma. The format is cell-based, human. To be noted: Homo sapiens; Hep-2, MTT, 72 h; read-out: Cytotoxic activity CC50. The protocol:
as §1

A short description of data set [16]: Cytotoxicity MTT assay, SiHa cervix squamous carcinoma. The format is cell-based, human. The note with it: human; CC50 MDCK normal cells / SiHa; read-out: Selectivity index (SI) of cytotoxic activity. On the procedure:
as §1

Data set [17] can be described thus: Cytotoxicity MTT assay, HeLa cervix adenocarcinoma. To be noted: human, MDCK normal cells versus HeLa cervix adenocarcinoma cells; CC50 MDCK normal cells / HeLa; read-out: Selectivity index (SI) of cytotoxic activity. The format is cell-based, human. On the procedure: as §1
Data set [18] is described as follows: Cytotoxicity MTT assay, KB nasopharynx carcinoma. In kind it is cell-based, human. The note with it: human, MDCK normal cells versus KB nasopharynx carcinoma cells; CC50 MDCK normal cells / KB; read-out: Selectivity index (SI) of cytotoxic activity. On the procedure: as §1
A short description of data set [19]: Cytotoxicity MTT assay, Hep-2 laryngeal carcinoma. The format is cell-based, human. To be noted: dog MDCK normal cells versus Hep-2 laryngeal carcinoma cells; CC50 MDCK normal cells / Hep-2; read-out: Selectivity index (SI) of cytotoxic activity. The protocol: as §1

As for `CC(C)=CCc1cc(C(=O)/C=C/c2ccccc2)c(O)c(CC=C(C)C)c1O` [Compound 2, spinochalcone A], the CC50 in the data set on SiHa [1] is > 100 µg/mL; in the data set with PC-3 [3] it was 9.7 µg/mL and 26 µM; in the data set on DU-145 [6] it was 6.1 µg/mL and 16.3 µM; with HeLa [8] it was > 100 µg/mL; in the data set with KB [14] it was > 100 µg/mL; in the data set on Hep-2 [15] it was > 100 µg/mL. The selectivity ratio at 72 h in data set [2] worked out at 9.4; in [7] it was 15. Also, the IC50 in the data set with HeLa [4] is > 100 µM; in the data set on Hep-2 [5], > 100 µM; in the data set with SiHa [9], > 100 µM; with PC-3 [10] it was > 100 µM; in the data set on MDCK it was 18.7 µg/mL and 50 µM; in the data set on KB [11] it was 6 µg/mL and 16 µM. The IC50 with DU-145 [13] was > 100 µM. Besides, the “Selectivity index (SI) of antiproliferative activity” value (“Selectivity index (SI)” for short) with KB [11] came out at 3.1. Besides, the CC50 at 72 h in data set [12] was 92.1 µg/mL and 245 µM.
On to `C=CC(C)(C)c1cc(C2COc3cc(O)ccc3C2)c(O)c(O)c1OC` (stereo not drawn) [Compound 4, secundiflorol G], for which the 50% cytotoxic concentration (CC50) in the data set on SiHa [1] is 14.7 µg/mL and 41.3 µM; in the data set on PC-3 [3], 16.5 µg/mL and 46.4 µM; in the data set on DU-145 [6] it was 21.5 µg/mL and 60.6 µM; with HeLa [8], 8.1 µg/mL and 23 µM; with KB [14], 5.3 µg/mL and 15 µM; in the data set with Hep-2 [15], 3.9 µg/mL and 11 µM. Moreover, the selectivity ratio at 72 h is 2 in [16]; 1.8 in data set [2]; 1.3 in data set [7]; 3.6 in [17]; 5.5 in data set [18]; 7.6 in [19]. Further, the IC50 is > 100 µM with HeLa [4]; > 100 µM in the data set on Hep-2 [5]; 21.2 µg/mL and 60 µM in the data set on SiHa [9]; > 100 µM with PC-3 [10]; 25.4 µg/mL and 72 µM in the data set on MDCK; > 100 µM in the data set on KB [11]. Moreover, in the data set on DU-145 [13], the IC50 was > 100 µM. The “Selectivity index (SI)” value in the data set with SiHa [9] amounted to 1.2. Further, the cytotoxic concentration (CC50) at 72 h in data set [12] was 29.7 µg/mL and 83.4 µM.
On to `CC(=O)O[C@@]12CO[C@@H]1C[C@H](O)[C@@]1(C)C(=O)[C@H](O)C3=C(C)[C@@H](OC(=O)[C@H](O)[C@@H](NC(=O)OC(C)(C)C)c4ccccc4)C[C@@](O)([C@@H](OC(=O)c4ccccc4)[C@H]21)C3(C)C` [Docetaxel, reference compound], for which the CC50 was 0.17 µg/mL and 220 nM with SiHa [1]; 0.07 µg/mL and 100 nM with PC-3 [3]; 0.007 µg/mL and 10 nM in the data set with DU-145 [6]; 0.19 µg/mL and 250 nM in the data set on HeLa [8]; 0.2 µg/mL and 300 nM with KB [14]; 0.07 µg/mL and 100 nM in the data set on Hep-2 [15]. Further, the selectivity ratio at 72 h in [16] worked out at 6.3; in data set [2], 14; in data set [7], 140; in data set [17] it was 5.6; in data set [18] it was 4.6; in data set [19], 14. For the same compound, the IC50 with HeLa [4] is 0.03 µg/mL and 40 nM; in the data set on Hep-2 [5] it was 0.05 µg/mL and 70 nM; in the data set with SiHa [9], 0.07 µg/mL and 100 nM; with PC-3 [10], 0.007 µg/mL and 10 nM; in the data set on MDCK, 0.11 µg/mL and 140 nM; in the data set on KB [11], 0.04 µg/mL and 60 nM. For the same compound, in the data set with DU-145 [13], the IC50 is 0.01 µg/mL and 20 nM. Besides, the “Selectivity index (SI)” value was 3.5 in the data set on HeLa [4] (IC50 MDCK normal cells / HeLa); 2.0 with Hep-2 [5] (IC50 MDCK normal cells / Hep-2); 1.4 with SiHa [9]; 2.3 in the data set with KB [11]; 7 with DU-145 [13] (IC50 MDCK normal cells / DU-145). The CC50 at 72 h in [12] is 1.1 µg/mL and 1.4 µM.

These data come from publication PMC6332200, “Isolation and Identification of Cytotoxic Compounds from Aeschynomene fascicularis, a Mayan Medicinal Plant” (Molecules, 2015).
